Non-standard residues stand in square brackets, D forms with d. Residues, ends and D or L forms follow the SMILES beside them. No end group written: not given here. Orn = NCCC[C@H](N)C(=O)O
How the values were obtained:
[1] = Resistance to proteolytic degradation by plasmin (nano-LC/MS); type: in vitro ADME; settings: isolated enzyme plasmin; peptide 50 ng/ml, 37° C., plasmin 50 μg/ml, pH 7.4; after 4 h incubation; read-out: degraded with plasmin
From the text: (§1) The following peptides were compared for resistance against proteolytic degradation: CXCL9 (74-103) with L-amino acids (=L-amino acid peptide); CXCL9 (74-103) with D-amino acids (=D-amino acid peptide) and Acetyl-OOOQONGOOHQOOOQQOVROSQRORQOOTT [SEQ ID NO:2] This is a peptide derived from CXCL9 (74-103) with an acetyl-group on the N-terminus, lysines replaced by ornithine and VL (at positions 88 and 89) replaced by QQ and serine (at position 97) also replaced by ornithine (=ornithine peptide).
(§2) Incubations were performed with peptides at 50 ng/ml and 37° C. for 5 minutes up to 24 hours with trypsin, plasmin or cathepsin G. After the incubation, the reaction was stopped through addition of trifluoroacetic acid (to reach a final pH<4) and purified by nano-LC with on-line detection of eluted peptides by mass spectrometry.
(§3) Sample buffer for incubations with plasmin: 50 mM Tris-HCl 0.5 M NaCl PH 7.4; final plasmin conc. 50 μg/ml Sample buffer for incubations with cathepsin G: 20 mM Tris-HCl+1 mM CaCl2 pH 7.4; final conc. Cathepsin G at 13 mU/litre.

plasmin [2] = molecular target: plasmin (Homo sapiens, UniProt P00747); experiment: as above; type: in vitro ADME; settings: peptide 50 ng/ml, 37° C., plasmin 50 μg/ml, pH 7.4
plasmin (Homo sapiens, UniProt P00747), sequence (P00747 581-810 limits assumed, species assumed): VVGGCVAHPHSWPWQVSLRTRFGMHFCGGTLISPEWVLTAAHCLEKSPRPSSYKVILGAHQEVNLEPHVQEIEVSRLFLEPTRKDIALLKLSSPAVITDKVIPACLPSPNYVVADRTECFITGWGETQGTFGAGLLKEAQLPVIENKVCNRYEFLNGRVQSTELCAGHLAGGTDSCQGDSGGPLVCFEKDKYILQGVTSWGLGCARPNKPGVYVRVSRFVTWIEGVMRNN
plasmin (Homo sapiens, UniProt P00747), sequence (P00747 97-580 partner limits assumed, species assumed): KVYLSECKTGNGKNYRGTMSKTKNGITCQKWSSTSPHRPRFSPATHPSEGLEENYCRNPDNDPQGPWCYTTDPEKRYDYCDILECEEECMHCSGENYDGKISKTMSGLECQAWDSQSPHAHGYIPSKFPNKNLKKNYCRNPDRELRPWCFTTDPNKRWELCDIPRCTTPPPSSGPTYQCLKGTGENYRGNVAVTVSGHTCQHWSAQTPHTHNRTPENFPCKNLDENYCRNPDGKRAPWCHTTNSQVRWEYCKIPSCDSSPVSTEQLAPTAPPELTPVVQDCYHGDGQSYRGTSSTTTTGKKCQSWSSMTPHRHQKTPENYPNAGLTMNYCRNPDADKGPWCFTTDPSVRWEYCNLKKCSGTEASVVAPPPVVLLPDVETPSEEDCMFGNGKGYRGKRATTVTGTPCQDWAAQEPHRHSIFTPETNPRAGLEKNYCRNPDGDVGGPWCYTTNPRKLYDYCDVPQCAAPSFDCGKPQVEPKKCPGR
From the text: as §1, §2, §3

cathepsin G [3] = molecular target: T1, cathepsin G (Homo sapiens, UniProt P08311); experiment: Resistance to proteolytic degradation by cathepsin G (nano-LC/MS); type: in vitro ADME; settings: peptide 50 ng/ml, 37° C., cathepsin G 13 mU/litre, pH 7.4
T1 sequence (P08311 21-244): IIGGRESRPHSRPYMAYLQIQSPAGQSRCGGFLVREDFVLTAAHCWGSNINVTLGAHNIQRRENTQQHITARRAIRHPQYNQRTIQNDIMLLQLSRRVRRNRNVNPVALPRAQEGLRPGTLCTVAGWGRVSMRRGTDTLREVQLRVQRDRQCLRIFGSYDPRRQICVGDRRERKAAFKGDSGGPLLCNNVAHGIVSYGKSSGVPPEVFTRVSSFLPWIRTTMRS
From the text: as §1, §2, §3

plasmin [4] = experiment: 50 mM Tris-HCl 0.5 M NaCl PH 7.4; final plasmin conc. 50 μg/ml; settings: 37° C., up to 24 hours
trypsin = experiment: 100 mM Tris-HCl pH 8.5; final trypsin (from Sigma) conc. 250 ng/ml; settings: 37° C., up to 24 hours
cathepsin G [5] = experiment: 20 mM Tris-HCl+1 mM CaCl2 pH 7.4; final conc. Cathepsin G at 13 mU/litre; settings: 37° C., up to 24 hours
[6] = Resistance to proteolytic degradation by cathepsin G (nano-LC/MS); type: in vitro ADME; settings: cathepsin G (isolated protease); peptide 50 ng/ml, 37° C., cathepsin G 13 mU/litre, pH 7.4; after 4 h; read-out: degraded with cathepsin G
From the text: as §1, §2, §3

K. pneumonia = settings: preventive treatment / pre-treatment; cited from earlier work

For `CC(=O)N[C@@H](CCCN)C(=O)N[C@@H](CCCN)C(=O)N[C@@H](CCCN)C(=O)N[C@@H](CCC(N)=O)C(=O)N[C@@H](CCCN)C(=O)N[C@@H](CC(N)=O)C(=O)NCC(=O)N[C@@H](CCCN)C(=O)N[C@@H](CCCN)C(=O)N[C@@H](Cc1c[nH]cn1)C(=O)N[C@@H](CCC(N)=O)C(=O)N[C@@H](CCCN)C(=O)N[C@@H](CCCN)C(=O)N[C@@H](CCCN)C(=O)N[C@@H](CCC(N)=O)C(=O)N[C@@H](CCC(N)=O)C(=O)N[C@@H](CCCN)C(=O)N[C@H](C(=O)N[C@@H](CCCNC(=N)N)C(=O)N[C@@H](CCCN)C(=O)N[C@@H](CO)C(=O)N[C@@H](CCC(N)=O)C(=O)N[C@@H](CCCNC(=N)N)C(=O)N[C@@H](CCCN)C(=O)N[C@@H](CCCNC(=N)N)C(=O)N[C@@H](CCC(N)=O)C(=O)N[C@@H](CCCN)C(=O)N[C@@H](CCCN)C(=O)N[C@H](C(=O)N[C@H](C(=O)O)[C@@H](C)O)[C@@H](C)O)C(C)C` [Ornithine peptide, Acetyl-OOOQONGOOHQOOOQQOVROSQRORQOOTT] (Ac-[Orn][Orn][Orn]Q[Orn]NG[Orn][Orn]HQ[Orn][Orn][Orn]QQ[Orn]VR[Orn]SQR[Orn]RQ[Orn][Orn]TT-OH; C-terminus assumed), the metabolised at 4 h [1] was over 70%, the “cleavage after arginine with plasmin” value (plasmin [2]; after 5 min) was under 10% and the “cleavage with cathepsin G” value (cathepsin G [3]; 5 min up to 4 h incubation) was “no cleavage”.

With CXCL9 (74-103) with D-amino acids the not cleaved (plasmin [4]) was “resistant to plasmin at incubations between 5 min and 8 hours” and the not cleaved (trypsin) was “fully resistant to trypsin at incubations from 5 min. up to 4 hours”.

For Acetyl-OOOQONGOOHQOOOQQOVROSQRORQOOTT, the not cleaved (cathepsin G [5]) was “no cleavage with cathepsin G after 5 min up to 4 h incubation”.

For `CC(C)C[C@@H](NC(=O)[C@H](NC(=O)[C@@H](CCCCN)NC(=O)[C@@H](CCCCN)NC(=O)[C@@H](CCCCN)NC(=O)[C@@H](CCC(N)=O)NC(=O)[C@@H](Cc1c[nH]cn1)NC(=O)[C@@H](CCCCN)NC(=O)[C@@H](CCCCN)NC(=O)CNC(=O)[C@@H](CC(N)=O)NC(=O)[C@@H](CCCCN)NC(=O)[C@@H](CCC(N)=O)NC(=O)[C@@H](CCCCN)NC(=O)[C@@H](CCCCN)NC(=O)[C@H](N)CCCCN)C(C)C)C(=O)N[C@H](CCCCN)C(=O)N[C@@H](C(=O)N[C@H](CCCNC(=N)N)C(=O)N[C@H](CCCCN)C(=O)N[C@H](CO)C(=O)N[C@H](CCC(N)=O)C(=O)N[C@H](CCCNC(=N)N)C(=O)N[C@H](CO)C(=O)N[C@H](CCCNC(=N)N)C(=O)N[C@H](CCC(N)=O)C(=O)N[C@H](CCCCN)C(=O)N[C@H](CCCCN)C(=O)N[C@@H](C(=O)N[C@@H](C(=O)O)[C@H](C)O)[C@H](C)O)C(C)C` [D-amino acid peptide] (H-[dK][dK][dK][dQ][dK][dN]G[dK][dK][dH][dQ][dK][dK][dK][dV][dL][dK][dV][dR][dK][dS][dQ][dR][dS][dR][dQ][dK][dK][dT][dT]-OH; N-terminus and C-terminus assumed), the resistance to plasmin (plasmin [2]; between 5 min and 8 hours) was “resistant”, the metabolised at 24 h, 50 ng/ml (cathepsin G [3]; cathepsin G (isolated protease), after 24 h) was 68% and the “degradation with cathepsin G” value (cathepsin G [3]; up to 8 h) was “less than 5%”.

With “KKKQKNGKKHQKKKVLKVRKSQRSRQKKTT [CXCL9 (74-103)]” the degradation with plasmin (plasmin [2]; after 5 min) was “partial degraded”, the degradation with plasmin (plasmin [2]; after 30 minutes) was “fully degradation” and the metabolised at 4 h, 50 ng/ml [6] was over 90%. The “stability to cathepsin G” value (cathepsin G [3]; up to 2 h) was “stable”.

B1: VAP-1/SSAO: an endothelial bound adhesion molecule with amine oxidase activity involved in neutrophil egress from the microvasculature (protein, UniProt Q16853 1-763, looked up)
Amine oxidase …: MNQKTILVLLILAVITIFALVCVLLVGRGGDGGEPSQLPHCPSVSPSAQPWTHPGQSQLFADLSREELTAVMRFLTQRLGPGLVDAAQARPSDNCVFSVELQLPPKAAALAHLDRGSPPPAREALAIVFFGRQPQPNVSELVVGPLPHPSYMRDVTVERHGGPLPYHRRPVLFQEYLDIDQMIFNRELPQASGLLHHCCFYKHRGRNLVTMTTAPRGLQSGDRATWFGLYYNISGAGFFLHHVGLELLVNHKALDPARWTIQKVFYQGRYYDSLAQLEAQFEAGLVNVVLIPDNGTGGSWSLKSPVPPGPAPPLQFYPQGPRFSVQGSRVASSLWTFSFGLGAFSGPRIFDVRFQGERLVYEISLQEALAIYGGNSPAAMTTRYVDGGFGMGKYTTPLTRGVDCPYLATYVDWHFLLESQAPKTIRDAFCVFEQNQGLPLRRHHSDLYSHYFGGLAETVLVVRSMSTLLNYDYVWDTVFHPSGAIEIRFYATGYISSAFLFGATGKYGNQVSEHTLGTVHTHSAHFKVDLDVAGLENWVWAEDMVFVPMAVPWSPEHQLQRLQVTRKLLEMEEQAAFLVGSATPRYLYLASNHSNKWGHPRGYRIQMLSFAGEPLPQNSSMARGFSWERYQLAVTQRKEEEPSSSSVFNQNDPWAPTVDFSDFINNETIAGKDLVAWVTAGFLHIPHAEDIPNTVTVGNGVGFFLRPYNFFDEDPSFYSADSIYFRGDQDAGACEVNPLACLPQAAACAPDLPAFSHGGFSHN
In the case of B1, the bacterial load (K. pneumonia) is listed as “increased” and the “neutrophil recruitment / migration” value (K. pneumonia) is listed as “decreased”.

From patent US20250144177A1 (Katholieke Universiteit Leuven, priority 2022, published 2025)
